Like-named read-outs stand apart in the source and are kept apart here.
Columns and labels:
[1] = system: transplanted tumor of human pancreatic cancer cell PANC-1; experiment: PANC-1 transplanted tumor in nude mice; details: for Tumor Volume (mm3) (d 1): d1
Description: (§1) Then cell concentration was adjusted to 1×10^7/ml with matrigel, then each nude mouse was inoculated subcutaneously with 0.2 ml of cells at its right armpit and recorded as the first day of inoculation. When the tumor grows to be greater than or equal to 100 mm^3, the mice were randomly divided into 11 groups with 6 mice in each group: a model group, a cyclophosphamide group, isovaleryl spiramycin I groups with doses of 25, 50 and 100 mg/kg, isovaleryl spiramycin II groups with doses of 25, 50 and 100 mg/kg, and isovaleryl spiramycin III groups with doses of 25, 50 and 100 mg/kg. Each group was continuously administered intragastrically for 30 days with a dose of 20 ml/kg. The mice were sacrificed the next day after drug withdrawal and the indicators were tested. The long diameter and short diameter of the tumor, and the body weight of each mouse were recorded every 3 days from drug administration to nude mouse sacrifice.
(§2) The body weight of the nude mice and the long diameter (a) and short diameter (b) of the transplanted tumor were measured every 3 days, and the tumor volume (v), relative tumor volume (RTV) and relative tumor proliferation rate (T/C) are calculated respectively according to the following formulas, wherein V=a×b^2/2; RTV=V/V0 (V0 is the tumor volume before administration, V is the tumor volume before sacrifice), and T/C (%)=treatment group RTV/model control group RTV×100%.
(§3) Each mouse was weighed and sacrificed. After the tumor was completely stripped off from the body of the mouse, the non-tumor tissues such as blood stains and fat were removed to weigh the tumor and calculate the tumor growth inhibition rate. The average tumor weight of each group of mice is used as an indicator of efficacy. Tumor growth inhibition rate (%)=(1−the average tumor weight of the treatment group/the average tumor weight of the model group)×100%.

[2] = system: transplanted tumor of human renal clear cell adenocarcinoma cell 786-O; experiment: 786-O transplanted tumor in nude mice; details: for Tumor Volume (mm3) (d 1): d1
Description: as §1, with “786-O cells in a logarithmic growth phase were taken and subjected to a trypan blue exclusion experiment showing that the cell viability was more than 95%, then the cells were subjected to trypsinization, centrifugation, and supernatant removal. Then” for “Then”
as §2, §3

[3] = system: transplanted tumor of human non-small cell lung cancer cell H1299
Description: as §1, with “group:” for “group: a model group, a cyclophosphamide group,”
as §2, §3

[4] = PANC-1, 12.5 mg/kg (low dose) i.g. 30 days
[5] = PANC-1, 25 mg/kg (medium dose) i.g. 30 days
[6] = PANC-1, 50 mg/kg (high dose) i.g. 30 days
[7] = 786-O, high dose (100 mg/kg in method) i.g. 30 days
[8] = 786-O, low dose (25 mg/kg in method) i.g. 30 days
[9] = 786-O, medium dose (50 mg/kg in method) i.g. 30 days
[10] = H1299, 25 mg/kg (low dose) i.g. 30 days
[11] = H1299, 50 mg/kg (medium dose) i.g. 30 days
[12] = H1299, 100 mg/kg (high dose) i.g. 30 days

COC1C(OC(C)=O)CC(=O)OC(C)CC=CC=CC(OC2CCC(N(C)C)C(C)O2)C(C)CC(CC=O)C1OC1OC(C)C(OC2CC(C)(O)C(OC(=O)CC(C)C)C(C)O2)C(N(C)C)C1O (stereo not drawn) [Isovaleryl spiramycin II, isovaleryl spiramycin II]
Inhibition Rate (tumor growth inhibition rate) [1, 4]: 20.55%
Tumor Weight [1, 4]: 2.16 ± 0.51 g
Inhibition Rate (tumor growth inhibition rate) [1, 5]: 41.72%
Tumor Weight [1, 5]: 1.58 ± 0.51 g
Inhibition Rate (tumor growth inhibition rate) [1, 6]: 56.81%
Tumor Weight [1, 6]: 1.17 ± 0.47 g
Relative Tumor Proliferation Rate (T/C) ([1]; PANC-1, high dose i.g. 30 days): 44.44%
Relative Tumor Proliferation Rate (T/C) ([1]; PANC-1, low dose i.g. 30 days): 79.23%
tumor volume and relative tumor volume compared with the model group ([1]; PANC-1, low, medium and high doses, P<0.05): significantly lower
Relative Tumor Proliferation Rate (T/C) ([1]; PANC-1, medium dose i.g. 30 days): 60.58%
Relative Tumor Proliferation Rate (T/C) ([1]; PANC-1 nude mice, 12.5 mg/kg): 79.23%
Relative Tumor Volume (RTV) ([1]; PANC-1 nude mice, 12.5 mg/kg): 13.87 ± 1.53
Tumor Volume (mm3) (d 1) ([1]; PANC-1 nude mice, 12.5 mg/kg): 104.64 ± 10.69 mm3
Tumor Volume (mm3) (d30) ([1]; PANC-1 nude mice, 12.5 mg/kg): 1450.36 ± 218.20 mm3
Relative Tumor Proliferation Rate (T/C) ([1]; PANC-1 nude mice, 25 mg/kg): 60.58%
Relative Tumor Volume (RTV) ([1]; PANC-1 nude mice, 25 mg/kg): 10.60 ± 1.10
Tumor Volume (mm3) (d 1) ([1]; PANC-1 nude mice, 25 mg/kg): 105.81 ± 11.20 mm3
Tumor Volume (mm3) (d30) ([1]; PANC-1 nude mice, 25 mg/kg): 1113.42 ± 71.14 mm3
Relative Tumor Proliferation Rate (T/C) ([1]; PANC-1 nude mice, 50 mg/kg): 44.45%
Relative Tumor Volume (RTV) ([1]; PANC-1 nude mice, 50 mg/kg): 7.78 ± 1.71
Tumor Volume (mm3) (d 1) ([1]; PANC-1 nude mice, 50 mg/kg): 119.69 ± 14.63 mm3
Tumor Volume (mm3) (d30) ([1]; PANC-1 nude mice, 50 mg/kg): 914.69 ± 130.26 mm3
mouse weight compared with the model group ([1]; mouse, in vivo): no significant changes
Inhibition Rate (%) ([2]; 786-O nude mice, 25 mg/kg): 19.69%
Relative Tumor Proliferation Rate (T/C) ([2]; 786-O nude mice, 25 mg/kg): 76.92%
Relative Tumor Volume (RTV) ([2]; 786-O nude mice, 25 mg/kg): 14.62 ± 1.93
Tumor Weight ([2]; 786-O nude mice, 25 mg/kg): 1.72 ± 0.27 g
Tumor Volume (mm3) (d 1) ([2]; 786-O nude mice, 25 mg/kg): 96.82 ± 8.52 mm3
Tumor Volume (mm3) (d30) ([2]; 786-O nude mice, 25 mg/kg): 1415.80 ± 201.11 mm3
Inhibition Rate (%) ([2]; 786-O nude mice, 50 mg/kg): 41.09%
Relative Tumor Proliferation Rate (T/C) ([2]; 786-O nude mice, 50 mg/kg): 53.61%
Relative Tumor Volume (RTV) ([2]; 786-O nude mice, 50 mg/kg): 10.19 ± 2.62
Tumor Weight ([2]; 786-O nude mice, 50 mg/kg): 1.26 ± 0.31 g
Tumor Volume (mm3) (d 1) ([2]; 786-O nude mice, 50 mg/kg): 96.82 ± 8.52 mm3
Tumor Volume (mm3) (d30) ([2]; 786-O nude mice, 50 mg/kg): 982.68 ± 265.02 mm3
Inhibition Rate (%) ([2]; 786-O nude mice, 100 mg/kg): 60.00%
Relative Tumor Proliferation Rate (T/C) ([2]; 786-O nude mice, 100 mg/kg): 35.74%
Relative Tumor Volume (RTV) ([2]; 786-O nude mice, 100 mg/kg): 6.79 ± 1.65
Tumor Weight ([2]; 786-O nude mice, 100 mg/kg): 0.85 ± 0.16 g
Tumor Volume (mm3) (d 1) ([2]; 786-O nude mice, 100 mg/kg): 103.26 ± 9.71 mm3
Tumor Volume (mm3) (d30) ([2]; 786-O nude mice, 100 mg/kg): 701.57 ± 127.91 mm3
Relative Tumor Proliferation Rate (T/C) [2, 7]: 35.74%
tumor growth inhibition rate [2, 7]: 60.00%
Relative Tumor Proliferation Rate (T/C) [2, 8]: 76.92%
tumor growth inhibition rate [2, 8]: 19.69%
tumor volume and relative tumor volume compared with the model group ([2]; 786-O, low, medium and high doses, P<0.05): significantly lower
Relative Tumor Proliferation Rate (T/C) [2, 9]: 53.61%
tumor growth inhibition rate [2, 9]: 41.09%
mouse weight compared with the model group ([2]; mouse, in vivo): no significant changes
Body Weight (g) (d1) ([2]; mouse, in vivo, 25 mg/kg): 22.05 ± 0.71 g
Body Weight (g) (d30) ([2]; mouse, in vivo, 25 mg/kg): 23.33 ± 0.54 g
Body Weight (g) (d1) ([2]; mouse, in vivo, 50 mg/kg): 22.42 ± 0.54 g
Body Weight (g) (d30) ([2]; mouse, in vivo, 50 mg/kg): 23.42 ± 0.50 g
Body Weight (g) (d1) ([2]; mouse, in vivo, 100 mg/kg): 22.33 ± 0.41 g
Body Weight (g) (d30) ([2]; mouse, in vivo, 100 mg/kg): 23.45 ± 0.91 g
Inhibition Rate (tumor growth inhibition rate) [3, 10]: 17.32%
Relative Tumor Proliferation Rate (T/C) [3, 10]: 83.01%
Relative Tumor Volume (RTV) [3, 10]: 10.64 ± 0.92
Tumor Volume (d 1) [3, 10]: 139.13 ± 12.26 mm3
Tumor Volume (d 30) [3, 10]: 1474.57 ± 104.54 mm3
Tumor Weight [3, 10]: 1.44 ± 0.29 g
Inhibition Rate (tumor growth inhibition rate) [3, 11]: 44.21%
Relative Tumor Proliferation Rate (T/C) [3, 11]: 46.94%
Relative Tumor Volume (RTV) [3, 11]: 6.02 ± 1.07
Tumor Volume (d 1) [3, 11]: 138.94 ± 20.16 mm3
Tumor Volume (d 30) [3, 11]: 821.57 ± 90.36 mm3
Tumor Weight [3, 11]: 0.97 ± 0.16 g
Inhibition Rate (tumor growth inhibition rate) [3, 12]: 58.37%
Relative Tumor Proliferation Rate (T/C) [3, 12]: 36.86%
Relative Tumor Volume (RTV) [3, 12]: 4.72 ± 1.57
Tumor Volume (d 1) [3, 12]: 136.94 ± 14.60 mm3
Tumor Volume (d 30) [3, 12]: 634.05 ± 180.18 mm3
Tumor Weight [3, 12]: 0.73 ± 0.25 g
tumor volume and relative tumor volume compared with the model group ([3]; H1299, low, medium and high doses, P<0.05): significantly lower
mouse weight compared with the model group ([3]; mouse, in vivo): no significant changes
